Literature values, collected in patent US20070254835A1, “COMPOSITION AND METHOD FOR TREATING NEUROLOGICAL DISORDERS” (priority 2003, published 2007).
Blank lines part the entries; values can stand above or below the molecule they belong to.

What was measured:
MT-3 = settings: brain tissue
HDAC = settings: in words only; literature
mammalian HDAC = settings: Yoshida et al. 1990
[1] = sterile powder formulation stored at 2-8° C.
DNA methyltransferase = settings: after incorporation at a site of methylation

Molecule: Nc1ncn([C@@H]2O[C@H](CO)[C@@H](O)[C@H]2O)c(=O)n1 [5-azacytidine]
MT-3 expression after treatment (MT-3): re-expression of MT-3

Molecule: O=C(/C=C/c1cccc(C(=O)NO)c1)NO [CBHA, m-carboxy-cinnamic acid bishydroxamic acid]
concentration at which HDAC is inhibited (HDAC): micromolar concentration or lower

Molecule: C/C=C1\NC(=O)[C@H]2CSSCC/C=C/[C@H](CC(=O)N[C@H](C(C)C)C(=O)N2)OC(=O)[C@H](C(C)C)NC1=O [Depsipeptide, depsipeptide]
concentration at which HDAC is inhibited (HDAC): micromolar concentrations

Molecule: CC(/C=C/C(=O)NO)=C\[C@@H](C)C(=O)c1ccc(N(C)C)cc1 [TSA, trichostatin A]
inhibition of mammalian HDAC (mammalian HDAC): potent inhibitor

half life in vivo: short half life
tissue distribution (in vivo): excellent tissue distribution
time the drug is kept stable [1]: at least 2 years
effect on DNA methyltransferase (DNA methyltransferase): irreversible inactivation
Molecule: Nc1ncn([C@H]2C[C@H](O)[C@@H](CO)O2)c(=O)n1 [decitabine, 5-aza-2′-deoxycytidine]

Molecule: depudecin
concentration at which HDAC is inhibited (HDAC): micromolar concentrations
